Article PMC4205912, “Sea foam as a source of fungal inoculum for the isolation of biologically active natural products” (Mycology, 2014)
In brackets after ≈: the same amount, converted by molar mass.

Legend:
[1] = tested on: Proteus vulgaris ATCC 12454; experiment: microbroth antibiotic susceptibility testing, P. vulgaris; type: cell-based; settings: triplicate, averaged, 22 h at 37°C
Procedure: (§1) All microbroth antibiotic susceptibility testing was carried out in triplicate in 96-well plates in accordance with Clinical Laboratory Standards Institute testing standards (NCCLS, [2003]) using the following pathogens: MRSA ATCC 33591 (MRSA), S. warneri ATCC 17917, VRE EF379 (VRE), Pseudomonas aeruginosa ATCC 14210, Proteus vulgaris ATCC 12454, and Candida albicans ATCC 14035. […] The optical density of the plate was recorded using a Thermo Scientific Varioskan Flash plate reader at 600 nm at time zero and then again after incubation of the plates for 22 h at 37°C. After subtracting the time zero OD600 from the final reading, the percentages of microorganism survival relative to vehicle control wells were calculated.

stromelysin = tested on: stromelysin; set-up: method as in Harris et al. [1993]; settings: ref Harris et al. [1993]; read-out: IC50, inhibition of cleavage of β-casein by stromelysin; cited from earlier work
[2] = tested on: Pseudomonas aeruginosa ATCC 14210; experiment: microbroth antibiotic susceptibility testing, P. aeruginosa; type: cell-based; settings: triplicate, averaged, 22 h at 37°C
Procedure: as §1, with “14035. Extract fractions were assayed at 250 µg/mL while pure compounds were serially diluted to generate a range of 12 concentrations (128–0.0625 µg/mL) in a final well volume concentration of 2% DMSO(aq).” for “14035.”

VRE EF379 = experiment: microbroth antibiotic susceptibility testing, VRE; type: cell-based, vancomycin-resistant Enterococcus faecium; settings: triplicate, averaged, 22 h at 37°C
Procedure: as §1, with “14035. Extract fractions were assayed at 250 µg/mL while pure compounds were serially diluted to generate a range of 12 concentrations (128–0.0625 µg/mL) in a final well volume concentration of 2% DMSO(aq).” for “14035.”

[3] = tested on: Candida albicans ATCC 14035; experiment: microbroth susceptibility testing, C. albicans; type: cell-based; settings: triplicate, averaged, 22 h at 37°C
Procedure: as §1, with “14035. Extract fractions were assayed at 250 µg/mL while pure compounds were serially diluted to generate a range of 12 concentrations (128–0.0625 µg/mL) in a final well volume concentration of 2% DMSO(aq).” for “14035.”

S. warneri ATCC 17917 = experiment: microbroth antibiotic susceptibility testing, S. warneri; type: cell-based; settings: triplicate, averaged, 22 h at 37°C
Procedure: as §1, with “14035. Extract fractions were assayed at 250 µg/mL while pure compounds were serially diluted to generate a range of 12 concentrations (128–0.0625 µg/mL) in a final well volume concentration of 2% DMSO(aq).” for “14035.”

[4] = tested on: adult human epidermal keratinocytes (HEKa); experiment: cytotoxicity assay (Alamar blue), keratinocytes; type: cell-based; settings: HeKa cells, 24 h
Procedure: (§2) Human foreskin BJ fibroblast cells (ATCC CRL-2522), adult human epidermal keratinocytes (HEKa), and human breast adenocarcinoma cells (ATCC HTB-26) were grown to 80% confluency (growth conditions are provided in Supplementary Materials and Methods), the cells were counted, diluted, and plated into treated 96-well cell culture plates. The BJ fibroblast and HEKa cells were plated at a cell density of 10,000 cells per well and the HTB-26 cells were plated at cell density of 5000 cells per well in 90 µL of respective growth medium (without the addition of antibiotics) and incubated for 24 h to allow cells to adhere to the plates before treatment. Pure compounds were tested in triplicate in serial dilutions of eight concentrations ranging from 128 µg/mL to 1 µg/mL per well (final well volume of 100 µL, 1% DMSO per well). Each of the cell lines were incubated at 37°C in a humidified atmosphere of 5% CO2; the BJ fibroblast and HEKa cells for 24 h and the HTB-26 cells for 72 h. Each plate contained four uninoculated positive controls, four untreated negative controls, and one column containing a concentration range of zinc pyrithione or doxorubicin. Alamar blue was added, 24 h after the treatment, and fluorescence was monitored using a Thermo Scientific Varioskan Flash plate reader at 560/12 excitation, 590 nm emission both at time zero and 4 h after Alamar blue addition. The inferred percentage of cell viability relative to vehicle control wells were calculated after subtracting the time zero emission 590 nm measurement from the final reading and the IC50 was determined.

[5] = tested on: Human foreskin BJ fibroblast cells (ATCC CRL-2522); experiment: cytotoxicity assay (Alamar blue), fibroblasts; type: cell-based; settings: Homo sapiens; BJ cells, 24 h; read-out: Fibroblast IC50
Procedure: as §2

[6] = tested on: erythropoietin gene expression; set-up: method as in Cai et al. [1998]; settings: at a concentration of 1–1.6 µM; ref Cai et al. [1998]; cited from earlier work
MRSA ATCC 33591 = experiment: microbroth antibiotic susceptibility testing, MRSA; type: cell-based, methicillin-resistant Staphylococcus aureus; settings: triplicate, averaged, 22 h at 37°C
Procedure: as §1, with “14035. Extract fractions were assayed at 250 µg/mL while pure compounds were serially diluted to generate a range of 12 concentrations (128–0.0625 µg/mL) in a final well volume concentration of 2% DMSO(aq).” for “14035.”

[7] = tested on: adult human epidermal keratinocytes (HEKa); experiment: cytotoxicity assay (Alamar blue), keratinocytes; type: cell-based; settings: HeKa cells, 24 h; remark: listed apart in the source
[8] = Pseudomonas aeruginosa, ATCC14210

## Cc1cc(=O)c(O)cc2c1C[C@H]1CC(C)(C)/C=C/C[C@@]3(C)Oc4cc(O)c(=O)cc(C)c4C[C@@H]3C[C@H](O)[C@]1(C)O2 [Pycnidione, pycnidione]
[1]; Proteus vulgaris, ATCC12454
  IC50: 30 µg/mL (≈ 54.7 µM)
  MIC: 64 µg/mL (≈ 117 µM)
stromelysin
  IC50: 31 µM
[2]; [8]
  IC50: > 128 µg/mL
  MIC: > 128 µg/mL
VRE EF379; Enterococcus, VRE, read-out: VRE IC50
  IC50: 46 µg/mL (≈ 83.8 µM)
VRE EF379; Enterococcus, VRE, read-out: VRE MIC
  MIC: 64 µg/mL (≈ 117 µM)
[3]; Candida albicans, ATCC14035
  IC50: 5 µg/mL (≈ 9.11 µM)
  MIC: 8 µg/mL (≈ 14.6 µM)
S. warneri ATCC 17917; Staphylococcus warneri, ATCC17917, read-out: S. warneri IC50
  IC50: 12 µg/mL (≈ 21.9 µM)
S. warneri ATCC 17917; Staphylococcus warneri, ATCC17917, read-out: S. warneri MIC
  MIC: 64 µg/mL (≈ 117 µM)
[4]; Homo sapiens, read-out: Keratinocyte IC50
  IC50: 15 µg/mL (≈ 27.3 µM)
[5]
  IC50: 11 µg/mL (≈ 20 µM)
[6]
  induction of erythropoietin gene expression: five-fold
MRSA ATCC 33591; Staphylococcus aureus, read-out: MRSA IC50
  IC50: 12 µg/mL (≈ 21.9 µM)
MRSA ATCC 33591; Staphylococcus aureus, read-out: MRSA MIC
  MIC: 16 µg/mL (≈ 29.2 µM)

## coniothyrione
[1]
  P. vulgaris IC50: 30 µg/mL
  P. vulgaris MIC: >64 µg/mL
[2]
  P. aeruginosa IC50: >64 µg/mL
  P. aeruginosa MIC: >64 µg/mL
VRE EF379
  VRE IC50: 4 µg/mL
  VRE MIC: 16 µg/mL
[3]
  C. albicans IC50: >64 µg/mL
  C. albicans MIC: >64 µg/mL
S. warneri ATCC 17917
  S. warneri IC50: 12 µg/mL
  S. warneri MIC: 16 µg/mL
[7]
  Keratinocyte MIC: 64 µg/mL
[4]
  Keratinocyte IC50: 5 µg/mL
MRSA ATCC 33591
  MRSA IC50: 8 µg/mL
  MRSA MIC: 16 µg/mL
